Consider 7 compounds from patent publication US20220112175A1, “PYRIDAZINES HERBICIDAL COMPOUNDS” (SYNGENTA CROP PROTECTION AG, priority 2019, published 2022).

Where two headings read alike, the source gives them in different places.

Assay in all cases: Post-emergence efficacy, glasshouse pot test
Format in all cases: in vivo

Assay [1] concerns Amaranthus palmeri (AMAPA). The note with it: 312 h, read-out: Post-emergence efficacy AMAPA (100=total damage to plant; 0=no damage to plant). On the procedure: (§1) Seeds of a variety of test species were sown in standard soil in pots. After cultivation for 14 days (post-emergence) under controlled conditions in a glasshouse (at 24/16° C., day/night; 14 hours light; 65% humidity), the plants were sprayed with an aqueous spray solution derived from the dissolution of the technical active ingredient formula (I) in a small amount of acetone and a special solvent and emulsifier mixture referred to as IF50 (11.12% Emulsogen EL360 TM+44.44% N-methylpyrrolidone+44.44% Dowanol DPM glycol ether), to create a 50 g/l solution which was then diluted to required concentration using 0.25% or 1% Empicol ESC70 (Sodium lauryl ether sulphate)+1% ammonium sulphate as diluent.
(§2) The test plants were then grown in a glasshouse under controlled conditions (at 24/16° C., day/night; 14 hours light; 65% humidity) and watered twice daily. After 13 days the test was evaluated (100=total damage to plant; 0=no damage to plant).
(§3) Ipomoea hederacea (IPOHE), Euphorbia heterophylla (EPHHL), Chenopodium album (CHEAL), Amaranthus palmeri (AMAPA), Lolium perenne (LOLPE), Digitaria sanguinalis (DIGSA), Eleusine indica (ELEIN), Echinochloa crus-galli (ECHCG), Setaria faberi (SETFA)

Assay [2] relates to Chenopodium album (CHEAL). The note with it: 312 h, read-out: Post-emergence efficacy CHEAL (100=total damage to plant; 0=no damage to plant). As to the method:
as §1, §2, §3

Assay [3] concerns Digitaria sanguinalis (DIGSA). The note with it: 312 h, read-out: Post-emergence efficacy DIGSA (100=total damage to plant; 0=no damage to plant). On the procedure: as §1, §2, §3
For assay [4], the system named is Echinochloa crus-galli (ECHCG). The note with it: 312 h, read-out: Post-emergence efficacy ECHCG (100=total damage to plant; 0=no damage to plant). On the procedure:
as §1, §2, §3

The subject of another assay is Eleusine indica (ELEIN). The note with it: 312 h, read-out: Post-emergence efficacy ELEIN (100=total damage to plant; 0=no damage to plant). On the procedure:
as §1, §2, §3

Assay [5] concerns Euphorbia heterophylla (EPHHL). The following applies: 312 h, read-out: Post-emergence efficacy EPHHL (100=total damage to plant; 0=no damage to plant). On the procedure:
as §1, §2, §3

For assay [6], the system named is Ipomoea hederacea (IPOHE). The following applies: 312 h, read-out: Post-emergence efficacy IPOHE (100=total damage to plant; 0=no damage to plant). As to the method:
as §1, §2, §3

The subject of the next assay is Lolium perenne (LOLPE). The note with it: 312 h, read-out: Post-emergence efficacy LOLPE (100=total damage to plant; 0=no damage to plant). As to the method: as §1, §2, §3
A further assay deals with Setaria faberi (SETFA). The following applies: 312 h, read-out: Post-emergence efficacy SETFA (100=total damage to plant; 0=no damage to plant). On the procedure:
as §1, §2, §3

Where [7] appears, read: Application rate 500 g/Ha, post-emergence spray, evaluated after 13 days.

As for `Cn1cnc(-c2cc[n+](CC(=O)NCC(=O)O)nc2)n1` [Compound A2, 2-[[2-[4-(1-methyl-1,2,4-triazol-3-yl)pyridazin-1-ium-1-yl]acetyl]amino]acetic acid chloride], the pest or weed control at 500 g/ha is 100% in assay [1] (post-emergence); 70% in [2] (post-emergence); 100% in assay [3] (post-emergence); 100% in assay [4] (post-emergence); 80% in the assay on Eleusine indica (ELEIN) (post-emergence); 50% in [5] (post-emergence). For the same compound, the pest or weed control at 500 g/ha in assay [6] (post-emergence) was 40%; with Lolium perenne (LOLPE) (post-emergence) it was 40%; with Setaria faberi (SETFA) (post-emergence), 100%.
With `CN(CC(=O)O)C(=O)C[n+]1ccc(-c2ncn(C)n2)cn1` [Compound A3], the pest or weed control at 500 g/ha was 100% in assay [1] (setting [7]); 100% in assay [2] (setting [7]); 100% in assay [3] (setting [7]); 100% in [4] (setting [7]); 90% in the assay with Eleusine indica (ELEIN) (setting [7]); 50% in assay [5] (setting [7]). Moreover, the pest or weed control at 500 g/ha was found to be 40% in [6] (setting [7]), 30% with Lolium perenne (LOLPE) (setting [7]) and 100% in the assay with Setaria faberi (SETFA) (setting [7]).
Regarding `Cn1cnc(-c2cc[n+](CC(=O)NCCS(=O)(=O)[O-])nc2)n1` [Compound A5, 2-[[2-[4-(1-methyl-1,2,4-triazol-3-yl)pyridazin-1-ium-1-yl]acetyl]amino]ethanesulfonate], the pest or weed control at 500 g/ha in assay [1] (setting [7]) is 90%; in [2] (setting [7]), 80%; in assay [3] (setting [7]), 90%; in assay [4] (setting [7]) it was 100%; in the assay with Eleusine indica (ELEIN) (setting [7]) it was 60%; in assay [5] (setting [7]), 60%. Moreover, the pest or weed control at 500 g/ha worked out at 20% in assay [6] (setting [7]), 50% with Lolium perenne (LOLPE) (setting [7]) and 90% with Setaria faberi (SETFA) (setting [7]).
Take `CN(CCS(=O)(=O)[O-])C(=O)C[n+]1ccc(-c2ncn(C)n2)cn1` [Compound A6]: the pest or weed control at 500 g/ha is 90% in [1] (setting [7]); 80% in assay [2] (setting [7]); 90% in [3] (setting [7]); 90% in assay [4] (setting [7]); 80% with Eleusine indica (ELEIN) (setting [7]); 70% in [5] (setting [7]). For the same compound, the pest or weed control at 500 g/ha in assay [6] (setting [7]) was found to be 30%; in the assay on Lolium perenne (LOLPE) (setting [7]), 20%; in the assay with Setaria faberi (SETFA) (setting [7]) it was 80%.
In the case of `Cn1cnc(-c2cc[n+](CSCCC(=O)O)nc2)n1` [Compound A7], the pest or weed control at 500 g/ha in assay [1] (setting [7]) worked out at 100%; in [2] (setting [7]) it was 90%; in assay [3] (setting [7]), 100%; in assay [4] (setting [7]) it was 100%; in the assay with Eleusine indica (ELEIN) (setting [7]), 90%; in assay [5] (setting [7]), 70%. Also, the pest or weed control at 500 g/ha in assay [6] (setting [7]) was determined as 20%; in the assay with Lolium perenne (LOLPE) (setting [7]), 70%; in the assay with Setaria faberi (SETFA) (setting [7]), 100%.
Consider `Cn1cnc(-c2cc[n+](CSCC(=O)O)nc2)n1` [Compound A8, 2-[[4-(1-methyl-1,2,4-triazol-3-yl)pyridazin-1-ium-1-yl]methylsulfanyl]acetic acid chloride], for which the pest or weed control at 500 g/ha in assay [1] (setting [7]) came to 100%; in assay [2] (setting [7]), 90%; in assay [3] (setting [7]), 100%; in assay [4] (setting [7]) it was 100%; in the assay on Eleusine indica (ELEIN) (setting [7]), 100%; in [5] (setting [7]), 70%. In addition, the pest or weed control at 500 g/ha in assay [6] (setting [7]) came out at 30%; in the assay on Lolium perenne (LOLPE) (setting [7]), 70%; in the assay on Setaria faberi (SETFA) (setting [7]), 100%.
On to `CC(C)(NC(=O)C[n+]1ccc(-c2nccs2)cn1)C(=O)O` [Compound A9], for which the pest or weed control at 500 g/ha in assay [1] (setting [7]) came to 100%; in assay [2] (setting [7]), 50%; in assay [3] (setting [7]), 40%; in assay [4] (setting [7]), 30%; with Eleusine indica (ELEIN) (setting [7]), 70%; in assay [5] (setting [7]), 80%. The pest or weed control at 500 g/ha in [6] (setting [7]) was found to be 20%; in the assay with Lolium perenne (LOLPE) (setting [7]), 30%; in the assay with Setaria faberi (SETFA) (setting [7]), 40%.
